From patent US12139492B2 (Endotarget Inc., priority 2021, dated 2024)

How the values were obtained:
Format in all cases: cell-based
Mino cells = assay: Antiproliferative effect, MTS cell viability assay, Mino cells; conditions: Homo sapiens, MINO, Mino mantle cell lymphoma cells; read-out: IC50 (anti-proliferation) Mino cells
In short: (§1)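 Readout was MTS-derived formazan absorbance (490 nm) reflecting metabolically active cells. Treatment lasted 72 h over a 0–10 μM range (0.001, 0.01, 0.1, 1, 10 μM) in JeKo-1 and Mino B-cell malignancy cells.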

JeKo-1 cells = assay: Antiproliferative effect, MTS cell viability assay, JeKo-1 cells; conditions: Homo sapiens; JeKo-1 mantle cell lymphoma cells; read-out: IC50 (anti-proliferation) JeKO-1 cells
In short: as §1

BTK = BTK (Homo sapiens, UniProt Q06187); assay: BTK degradation, DC50 and Dmax of Table 1 (cell line not given); parameters: endogenous in cells; conditions: for DC50: concentration giving 50% reduction of BTK expression level
BTK, sequence (Q06187 whole entry): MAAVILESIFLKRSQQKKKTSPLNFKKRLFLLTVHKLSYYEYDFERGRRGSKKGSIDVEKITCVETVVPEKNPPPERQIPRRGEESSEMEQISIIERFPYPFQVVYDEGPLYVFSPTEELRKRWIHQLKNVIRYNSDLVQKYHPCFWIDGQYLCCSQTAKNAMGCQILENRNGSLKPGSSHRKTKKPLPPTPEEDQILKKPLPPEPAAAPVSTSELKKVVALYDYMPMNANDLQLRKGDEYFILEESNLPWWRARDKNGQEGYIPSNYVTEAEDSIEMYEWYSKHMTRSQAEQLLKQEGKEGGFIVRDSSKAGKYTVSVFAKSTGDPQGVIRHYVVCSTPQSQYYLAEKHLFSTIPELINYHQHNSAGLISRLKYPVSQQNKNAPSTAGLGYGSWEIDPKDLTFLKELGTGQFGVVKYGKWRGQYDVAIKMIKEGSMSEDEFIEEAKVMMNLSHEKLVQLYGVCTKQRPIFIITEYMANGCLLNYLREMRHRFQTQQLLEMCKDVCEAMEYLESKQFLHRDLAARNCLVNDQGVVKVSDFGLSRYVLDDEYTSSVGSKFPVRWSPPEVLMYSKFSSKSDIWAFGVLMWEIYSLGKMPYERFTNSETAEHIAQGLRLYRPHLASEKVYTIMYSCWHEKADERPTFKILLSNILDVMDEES

Row | Dmax (BTK) | DC50 (BTK) | SMILES | IC50 (Mino cells) | IC50 (JeKo-1 cells)
1 | > 75% | 0.01 to 0.05 µM | Nc1ncnc2c1c(-c1ccc(Oc3ccccc3)cc1)nn2[C@@H]1CCCN(C2CCN(C(=O)N3CCC(CCCN4CCN(c5ccc6c(c5)CN(C5CCC(=O)NC5=O)C6=O)CC4)CC3)CC2)C1 (stereo partly drawn) [Compound 194, 3-(5-(4-(3-(1-((R)-3-(4-amino-3-(4-phenoxyphenyl)-1H-pyrazolo[3,4-d]pyrimidin-1-yl)-[1,4′-bipiperidine]-1′-carbonyl)piperidin-4-yl)propyl)piperazin-1-yl)-1-oxoisoindolin-2-yl)piperidine-2,6-dione] | 1 to 10 µM | 1 to 10 µM
2 | > 90% | 0.01 to 0.05 µM | Nc1ncnc2c1c(-c1ccc(Oc3ccccc3)cc1)nn2[C@@H]1CCCN(C2CCN(C(=O)N3CCC(N4CCC(c5ccc6c(c5)CN(C5CCC(=O)NC5=O)C6=O)CC4)CC3)CC2)C1 (stereo partly drawn) [Compound 166, 3-(5-(1′-((R)-3-(4-amino-3-(4-phenoxyphenyl)-1H-pyrazolo[3,4-d]pyrimidin-1-yl)-[1,4′-bipiperidine]-1′-carbonyl)-[1,4′-bipiperidin]-4-yl)-1-oxoisoindolin-2-yl)piperidine-2,6-dione] | 1 to 10 µM | > 10 µM
3 | > 90% | > 0.05 µM | Nc1ncnc2c1c(-c1ccc(Oc3ccccc3)cc1)nn2[C@@H]1CCCN(C2CCN(C(=O)N3CCN(CCN4CCN(c5ccc6c(c5)CN(C5CCC(=O)NC5=O)C6=O)CC4)CC3)CC2)C1 (stereo partly drawn) [Compound 176, 3-(5-(4-(2-(4-((R)-3-(4-amino-3-(4-phenoxyphenyl)-1H-pyrazolo[3,4-d]pyrimidin-1-yl)-[1,4′-bipiperidine]-1′-carbonyl)piperazin-1-yl)ethyl)piperazin-1-yl)-1-oxoisoindolin-2-yl)piperidine-2,6-dione] | 1 to 10 µM | 1 to 10 µM
4 | > 75% | 0.01 to 0.05 µM | Nc1ncnc2c1c(-c1ccc(Oc3ccccc3)cc1)nn2[C@@H]1CCCN(C2CCN(C(=O)N3CCC(N4CCC(c5ccc6c(c5)C(=O)N(C5CCC(=O)NC5=O)C6=O)CC4)CC3)CC2)C1 (stereo partly drawn) [Compound 165, 5-(1′-((R)-3-(4-amino-3-(4-phenoxyphenyl)-1H-pyrazolo[3,4-d]pyrimidin-1-yl)-[1,4′-bipiperidine]-1′-carbonyl)-[1,4′-bipiperidin]-4-yl)-2-(2,6-dioxopiperidin-3-yl)isoindoline-1,3-dione] | 1 to 10 µM | > 10 µM
5 | > 75% | 0.01 to 0.05 µM | Nc1ncnc2c1c(-c1ccc(Oc3ccccc3)cc1)nn2[C@@H]1CCCN(C2CCN(C(=O)N3CCN(CCN4CCC(c5ccc6c(c5)C(=O)N(C5CCC(=O)NC5=O)C6=O)CC4)CC3)CC2)C1 (stereo partly drawn) [Compound 179, 5-(1-(2-(4-((R)-3-(4-amino-3-(4-phenoxyphenyl)-1H-pyrazolo[3,4-d]pyrimidin-1-yl)-[1,4′-bipiperidine]-1′-carbonyl)piperazin-1-yl)ethyl)piperidin-4-yl)-2-(2,6-dioxopiperidin-3-yl)isoindoline-1,3-dione] | 1 to 10 µM | > 10 µM
6 | > 75% | 0.01 to 0.05 µM | Nc1ncnc2c1c(-c1ccc(Oc3ccccc3)cc1)nn2[C@@H]1CCCN(C2CCN(C(=O)N3CCC(CCN4CCN(c5ccc6c(c5)CN(C5CCC(=O)NC5=O)C6=O)CC4)CC3)CC2)C1 (stereo partly drawn) [Compound 182, 3-(5-(4-(2-(1-((R)-3-(4-amino-3-(4-phenoxyphenyl)-1H-pyrazolo[3,4-d]pyrimidin-1-yl)-[1,4′-bipiperidine]-1′-carbonyl)piperidin-4-yl)ethyl)piperazin-1-yl)-1-oxoisoindolin-2-yl)piperidine-2,6-dione] | 1 to 10 µM | 1 to 10 µM

Second part, the molecule before the results:

Row | SMILES | Dmax (BTK) | DC50 (BTK) | IC50 (Mino cells) | IC50 (JeKo-1 cells)
7 | Nc1ncnc2c1c(-c1ccc(Oc3ccccc3)cc1)nn2C1CCN(C(=O)N2CCN(CCN3CCN(c4ccc5c(c4)CN(C4CCC(=O)NC4=O)C5=O)CC3)CC2)CC1 (centres unmarked) [Compound 96, 3-(5-(4-(2-(4-(4-(4-amino-3-(4-phenoxyphenyl)-1H-pyrazolo[3,4-d]pyrimidin-1-yl)piperidine-1-carbonyl)piperazin-1-yl)ethyl)piperazin-1-yl)-1-oxoisoindolin-2-yl)piperidine-2,6-dione] | > 90% | 0.01 to 0.05 µM | 1 to 10 µM | 1 to 10 µM
8 | Nc1ncnc2c1c(-c1ccc(Oc3ccccc3)cc1)nn2C1CCN(CC2CCN(C(=O)N3CCC(CCN4CCN(c5ccc6c(c5)CN(C5CCC(=O)NC5=O)C6=O)CC4)CC3)CC2)CC1 (centres unmarked) [Compound 44, 3-(5-(4-(2-(1-(4-((4-(4-amino-3-(4-phenoxyphenyl)-1H-pyrazolo[3,4-d]pyrimidin-1-yl)piperidin-1-yl)methyl)piperidine-1-carbonyl)piperidin-4-yl)ethyl)piperazin-1-yl)-1-oxoisoindolin-2-yl)piperidine-2,6-dione] | > 90% | 0.01 to 0.05 µM | 1 to 10 µM | 1 to 10 µM
9 | Nc1ncnc2c1c(-c1ccc(Oc3ccccc3)cc1)nn2[C@@H]1CCCN(CC2CCN(CCCC3CCN(c4ccc5c(c4)CN(C4CCC(=O)NC4=O)C5=O)CC3)CC2)C1 (stereo partly drawn) [Compound 142, 3-(5-(4-(3-(4-(((R)-3-(4-amino-3-(4-phenoxyphenyl)-1H-pyrazolo[3,4-d]pyrimidin-1-yl)piperidin-1-yl)methyl)piperidin-1-yl)propyl)piperidin-1-yl)-1-oxoisoindolin-2-yl)piperidine-2,6-dione] | > 75% | 0.01 to 0.05 µM | 1 to 10 µM | > 10 µM
10 | Nc1ncnc2c1c(-c1ccc(Oc3ccccc3)cc1)nn2C1CCN(CCOCCN2CCC(c3ccc4c(c3)C(=O)N(C3CCC(=O)NC3=O)C4=O)CC2)CC1 (centres unmarked) [Compound 11, 5-(1-(2-(2-(4-(4-amino-3-(4-phenoxyphenyl)-1H-pyrazolo[3,4-d]pyrimidin-1-yl)piperidin-1-yl)ethoxy)ethyl)piperidin-4-yl)-2-(2,6-dioxopiperidin-3-yl)isoindoline-1,3-dione] | > 90% | 0.01 to 0.05 µM | 1 to 10 µM | 1 to 10 µM
11 | Nc1ncnc2c1c(-c1ccc(Oc3ccccc3)cc1)nn2[C@@H]1CCCN(C(=O)N2CCC(CN3CCC(c4ccc5c(c4)CN(C4CCC(=O)NC4=O)C5=O)CC3)CC2)C1 (stereo partly drawn) [Compound 62, 3-(5-(1-((1-((R)-3-(4-amino-3-(4-phenoxyphenyl)-1H-pyrazolo[3,4-d]pyrimidin-1-yl)piperidine-1-carbonyl)piperidin-4-yl)methyl)piperidin-4-yl)-1-oxoisoindolin-2-yl)piperidine-2,6-dione] | > 90% | 0.01 to 0.05 µM | < 1 µM | < 1 µM
12 | Nc1ncnc2c1c(-c1ccc(Oc3ccccc3)cc1)nn2C1CCN(CC2CCN(C(=O)N3CCC(C4CCN(c5ccc6c(c5)CN(C5CCC(=O)NC5=O)C6=O)CC4)CC3)CC2)CC1 (centres unmarked) [Compound 40, 3-(5-(1′-(4-((4-(4-amino-3-(4-phenoxyphenyl)-1H-pyrazolo[3,4-d]pyrimidin-1-yl)piperidin-1-yl)methyl)piperidine-1-carbonyl)-[4,4′-bipiperidin]-1-yl)-1-oxoisoindolin-2-yl)piperidine-2,6-dione] | > 90% | > 0.05 µM | 1 to 10 µM | 1 to 10 µM
13 | Nc1ncnc2c1c(-c1ccc(Oc3ccccc3)cc1)nn2[C@@H]1CCCN(C2CCN(CCCN3CCN(c4ccc5c(c4)C(=O)N(C4CCC(=O)NC4=O)C5=O)CC3)CC2)C1 (stereo partly drawn) [Compound 151, 5-(4-(3-((R)-3-(4-amino-3-(4-phenoxyphenyl)-1H-pyrazolo[3,4-d]pyrimidin-1-yl)-[1,4′-bipiperidin]-1′-yl)propyl)piperazin-1-yl)-2-(2,6-dioxopiperidin-3-yl)isoindoline-1,3-dione] | > 75% | > 0.05 µM | > 10 µM | > 10 µM
14 | Nc1ncnc2c1c(-c1ccc(Oc3ccccc3)cc1)nn2[C@@H]1CCCN(C2CCN(CC3CCN(c4ccc5c(c4)CN(C4CCC(=O)NC4=O)C5=O)CC3)CC2)C1 (stereo partly drawn) [Compound 144, 3-(5-(4-(((R)-3-(4-amino-3-(4-phenoxyphenyl)-1H-pyrazolo[3,4-d]pyrimidin-1-yl)-[1,4′-bipiperidin]-1′-yl)methyl)piperidin-1-yl)-1-oxoisoindolin-2-yl)piperidine-2,6-dione] | > 90% | 0.01 to 0.05 µM | 1 to 10 µM | > 10 µM
15 | Nc1ncnc2c1c(-c1ccc(Oc3ccccc3)cc1)nn2[C@@H]1CCCN(C(=O)N2CCN(CC3CCN(c4ccc5c(c4)C(=O)N(C4CCC(=O)NC4=O)C5=O)CC3)CC2)C1 (stereo partly drawn) [Compound 57, 5-(4-((4-((R)-3-(4-amino-3-(4-phenoxyphenyl)-1H-pyrazolo[3,4-d]pyrimidin-1-yl)piperidine-1-carbonyl)piperazin-1-yl)methyl)piperidin-1-yl)-2-(2,6-dioxopiperidin-3-yl)isoindoline-1,3-dione] | > 90% | 0.01 to 0.05 µM | 1 to 10 µM | 1 to 10 µM
16 | Nc1ncnc2c1c(-c1ccc(Oc3ccccc3)cc1)nn2C1CCN(C(=O)N2CCC(N3CCN(c4ccc5c(c4)CN(C4CCC(=O)NC4=O)C5=O)CC3)CC2)CC1 (centres unmarked) [Compound 82, 3-(5-(4-(1-(4-(4-amino-3-(4-phenoxyphenyl)-1H-pyrazolo(3,4-d)pyrimidin-1-yl)piperidine-1-carbonyl)piperidin-4-yl)piperazin-1-yl)-1-oxoisoindolin-2-yl)piperidine-2,6-dione] | > 75% | 0.01 to 0.05 µM | > 10 µM | > 10 µM
17 | Nc1ncnc2c1c(-c1ccc(Oc3ccccc3)cc1)nn2[C@@H]1CCCN(CC2CCN(CCN3CCN(c4ccc5c(c4)CN(C4CCC(=O)NC4=O)C5=O)CC3)CC2)C1 (stereo partly drawn) [Compound 134, 3-(5-(4-(2-(4-(((R)-3-(4-amino-3-(4-phenoxyphenyl)-1H-pyrazolo[3,4-d]pyrimidin-1-yl)piperidin-1-yl)methyl)piperidin-1-yl)ethyl)piperazin-1-yl)-1-oxoisoindolin-2-yl)piperidine-2,6-dione] | > 75% | 0.01 to 0.05 µM | 1 to 10 µM | 1 to 10 µM
